Results on five compounds are retold here after article PMC9021288 (Nature Communications, 2022).

Each structure is given as a SMILES string. “And” between values parts separate entries of the source, which are not always exact repeats. Equal values may be shown once. Read-outs that look alike come from different tables or passages of the source.

One series in a line: in vitro. The conditions noted are these: human.
In the next series the test system is AcAS (PF3D7_0627800). In words: Cellular thermal shift assay on parasite lysate. It is filed as binding, Plasmodium falciparum. The settings on record: 1 µM. Here is the method:
A cellular thermal shift assay (CETSA) was performed on infected RBCs or parasite lysates as described previously.
For a CETSA on parasite lysates, synchronized trophozoite cultures (ACS11-tagged parasites) were treated with 0.1% saponin to lyse the RBCs, and washed three times in PBS. Subsequently, parasite pellets were resuspended in 1× lysis buffer and subjected to three flash-freeze-thaw cycles using liquid nitrogen, followed by mechanical shearing using a syringe with a 25 G and a 30 G needle. Samples were spun down at 18,000 g for 20 min at 4 °C. The supernatant was diluted to 2.1 mg/ml protein concentration, and 100 µl was added to each PCR tube containing 1 µl of the compound at a 100× concentration (final concentration of 1 µM). Samples were incubated for 30 min at room temperature, subjected to a thermal gradient for 3 min on a pre-heated PCR machine, followed by 4 °C for 3 min. Samples were spun down at 18,000 g for 20 min at 4 °C and the soluble fraction was flash-frozen in liquid nitrogen and stored at −80 °C.
Samples were loaded on an 8% SDS-Page gel (Genscript) with 4×10^6 infected RBCs or 50 µg protein for the parasite lysate approach. Proteins were transferred to a nitrocellulose membrane that was blocked with 5% skim milk (Sigma) in PBS overnight and incubated with rabbit antiserum against AcAS (1:1000) for 1 h. Subsequently, membranes were washed three times with PBS-Tween for 5 min, followed by incubation with secondary horseradish peroxide (HRP)-conjugated goat anti-rabbit antibodies (Dako P0448, 1:1000) for 1 h. Blots were then washed three times with PBS-Tween for 5 min and twice with PBS. Following a 5-min incubation with Clarity Max Western ECL Substrate (BioRad), protein blots were imaged using the ImageQuant LAS4000 (GE Healthcare). The band intensity was quantified using Fiji software.

Series [1] concerns P. falciparum NF54 rings and schizonts. In words: Stage-specific activity on synchronized ring and schizont cultures. It counts as cell-based, Plasmodium falciparum. On the procedure:
Asynchronous NF54 parasites were cultured in a semi-automated shaker system[63] and synchronized once with 5% D-sorbitol. […] This yielded a parasite culture with ≥ 90% rings. To assess the schizont-stage activity of MMV693186, the initial synchronized culture was treated again with sorbitol 7 h later. Subsequently, parasites were cultured for another 17 h to yield a parasite culture of ≥ 90% early schizont stages. The ring and schizont synchronized cultures were diluted to 0.5% and then incubated with either 50 nM DHA or 50 nM MM693183 for 24 h in duplicate. Subsequently, the drug was washed out and parasites were cultured for another 24 h. Parasitemia was determined using Giemsa-stained thin smears at 0 h, 24 h, and 48 h after drug exposure.

For series [2] the following is noted: dog, plasma.
The conditions of series [3]: rat, plasma.
For series [4] the following is noted: mouse, plasma.
The conditions of series [5]: human, plasma.
The conditions of series [6]: mouse.
The conditions of series [7]: human.
For series [8] the following is noted: rat.
A short description of series [9]: Solubility in PBS, FaSSIF, FeSSIF. It counts as physicochemical. The conditions noted are these: unknown samples, relative dilution factor 10000, duplicates.

By Papp A→B is commonly meant the apparent permeability from the apical to the basolateral side of a cell layer. Usually Papp B→A stands for how fast a substance crosses the layer from the basolateral side. The efflux ratio is a quotient of directional permeabilities that is used to spot active efflux. Broadly, the Papp is a coefficient for how fast a substance crosses the barrier. A higher Papp goes with fast passage. In the case of `NC(=O)N1c2ccccc2C=Cc2ccccc21` [Carbamazepine], in the series “in vitro” (Caco-2, pH 7.4), the Papp A→B at 9000 Sec, 2 µM was found to be 25 ×10⁻⁶ cm/s; the Papp B→A at 9000 Sec, 2 µM was 28.9 ×10⁻⁶ cm/s; the efflux ratio at 9000 Sec, 2 µM was determined as 1.2. In addition, in “in vitro” (Caco-2, pH 7.4, Papp AVG), the Papp at 9000 Sec, 2 µM was found to be 25 ×10⁻⁶ cm/s. This compound registered an apparent permeability coefficient (Papp) at 9000 Sec, 2 µM in “in vitro” (Caco-2, pH 7.4, Papp n=1, 2) of 24.3 ×10⁻⁶ cm/s.

With `C[C@H]1[C@@H](O)O[C@@H]2O[C@@]3(C)CC[C@H]4[C@H](C)CC[C@@H]1[C@@]24OO3` [DHA, dihydroartemisinin], the “AcAS band intensity normalized to DMSO at 37 °C” value worked out at 142.951 in the series on AcAS (PF3D7_0627800) (37 °C), 180.287 in the series on AcAS (PF3D7_0627800) (42 °C), 80.1639 with AcAS (PF3D7_0627800) (47 °C) and 24.4159 in the series with AcAS (PF3D7_0627800) (52 °C). Besides, the results for the “Parasitemia, rings culture” value in [1] (Time (h) 0), in [1] (Time (h) 24) and in series [1] (Time (h) 48) were 0.4, 0 and 0, respectively. The “Parasitemia, schizonts culture” value was 0.2 in series [1] (Time (h) 0), 0 in [1] (Time (h) 24) and 0 in series [1] (Time (h) 48).

Consider `C[C@@H](CNC(=O)[C@H](O)C(C)(C)CO)NC(=O)c1cc(F)c(F)cc1F` [MMV693183-03], for which, in series [2], the “% Bound Avg” value was 41.3%, the “% Bound n=1” value turned out to be 42.38%, the “% Bound n=2” value is on record as 40.31% and the “% Free n=1” value is 57.62%. Besides, the “% Free n=2” value in series [2] was 59.69%. In [3], the “% Bound Avg” value was found to be 39.9%, the “% Bound n=1” value turned out to be 39.84%, the “% Bound n=2” value was found to be 39.89% and the “% Free n=1” value is 60.16%. The “% Free n=2” value in series [3] was 60.11%. In series [4], the “% Bound Avg” value was determined as 33.4%, the “% Bound n=1” value was found to be 32.91%, the “% Bound n=2” value stood at 33.90% and the “% Free n=1” value is reported as 67.09%. The “% Free n=2” value in [4] stood at 66.10%. In addition, in [5], the “% Bound Avg” value is 51.9%, the “% Bound n=1” value worked out at 52.54%, the “% Bound n=2” value worked out at 51.24% and the “% Free n=1” value worked out at 47.46%. For the same compound, the “% Free n=2” value in series [5] is 48.76%.

`C[C@@H](CNC(=O)[C@H](O)C(C)(C)CO)NC(=O)c1cc(F)c(F)cc1F` [MMV693183-08]: the “Blood to Plasma ratio Avg(n=2)” value is reported as 0.98 in [6], 0.97 in [7] and 0.91 in series [8].

As to `C[C@@H](CNC(=O)[C@H](O)C(C)(C)CO)NC(=O)c1cc(F)c(F)cc1F` [MMV693183-06], the “Calculated concentration (solubility sample)” value in series [9] (FaSSIF) is 9179.95 ppm and 9316.55 ppm; in series [9] (FeSSIF) it was 9110.79 ppm and 8990.98 ppm; in series [9] (PBS) it was 6813.58 ppm and 7461.45 ppm.
